Results from ChEMBL document CHEMBL1201862, “PubChem BioAssay data set” (2004).
Several values for one entry are separate records, joined by “and”; a condition that tells them apart may be missing. Identical values can stand only once. Activity calls are given as the source filed them.

Tests used:
[1] = molecular target: T1, Apoptotic protease-activating factor 1 (Homo sapiens, UniProt O14727); format: functional
T1 sequence (O14727 whole entry): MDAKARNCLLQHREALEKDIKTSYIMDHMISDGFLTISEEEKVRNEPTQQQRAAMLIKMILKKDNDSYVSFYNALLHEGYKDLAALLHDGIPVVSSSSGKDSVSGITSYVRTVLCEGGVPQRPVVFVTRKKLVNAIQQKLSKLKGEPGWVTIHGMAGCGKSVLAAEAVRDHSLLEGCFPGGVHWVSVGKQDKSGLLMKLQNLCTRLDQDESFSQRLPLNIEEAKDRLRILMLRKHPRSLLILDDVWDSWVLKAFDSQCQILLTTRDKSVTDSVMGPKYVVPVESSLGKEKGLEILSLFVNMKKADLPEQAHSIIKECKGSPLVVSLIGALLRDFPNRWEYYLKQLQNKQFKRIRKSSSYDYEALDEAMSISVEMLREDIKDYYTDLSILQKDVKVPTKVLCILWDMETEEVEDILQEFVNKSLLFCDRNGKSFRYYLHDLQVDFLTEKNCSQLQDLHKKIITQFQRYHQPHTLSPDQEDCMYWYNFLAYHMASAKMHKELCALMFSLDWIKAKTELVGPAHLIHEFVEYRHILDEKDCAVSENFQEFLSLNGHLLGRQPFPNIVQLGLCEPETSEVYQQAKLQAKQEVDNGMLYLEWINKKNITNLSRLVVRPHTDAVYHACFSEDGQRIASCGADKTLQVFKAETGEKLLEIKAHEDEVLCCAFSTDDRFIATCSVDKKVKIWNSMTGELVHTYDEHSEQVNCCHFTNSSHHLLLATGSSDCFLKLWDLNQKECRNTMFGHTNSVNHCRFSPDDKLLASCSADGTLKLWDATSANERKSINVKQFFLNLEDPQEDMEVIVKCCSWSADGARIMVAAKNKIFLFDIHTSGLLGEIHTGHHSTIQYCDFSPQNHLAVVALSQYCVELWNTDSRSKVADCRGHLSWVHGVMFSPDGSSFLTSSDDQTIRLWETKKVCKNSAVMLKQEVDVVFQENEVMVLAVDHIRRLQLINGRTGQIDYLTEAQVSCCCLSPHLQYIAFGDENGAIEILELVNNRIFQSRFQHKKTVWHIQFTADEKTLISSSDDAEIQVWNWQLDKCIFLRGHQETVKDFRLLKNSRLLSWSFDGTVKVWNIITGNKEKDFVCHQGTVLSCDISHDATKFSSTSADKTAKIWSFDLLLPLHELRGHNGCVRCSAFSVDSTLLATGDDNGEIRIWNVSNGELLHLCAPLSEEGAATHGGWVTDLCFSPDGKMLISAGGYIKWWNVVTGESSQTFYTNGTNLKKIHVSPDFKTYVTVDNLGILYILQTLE

INS1 = assay: beta cell apoptosis inhibitors, cytokine rescue, dose response, luminescence, retest (AID 449756); format: functional, cell-based; conditions: Rattus norvegicus;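 also: cell death triggered by IL-1 beta plus TNF-alpha plus IFN-gamma mixture; protective hits raise ATP signal compared with cytokine alone wells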
[2] = molecular target: T2, Short transient receptor potential channel 4 (Mus musculus, UniProt Q9QUQ5); assay: mouse TRPC4 channel inhibitors, dose response, cell-based, HEK293 TRPC4/mu-opioid, Fluo-4 calcium (AID 434942); format: functional;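 also: potency of inhibitors blocking the TRPC4 calcium response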
T2 sequence (Q9QUQ5 whole entry): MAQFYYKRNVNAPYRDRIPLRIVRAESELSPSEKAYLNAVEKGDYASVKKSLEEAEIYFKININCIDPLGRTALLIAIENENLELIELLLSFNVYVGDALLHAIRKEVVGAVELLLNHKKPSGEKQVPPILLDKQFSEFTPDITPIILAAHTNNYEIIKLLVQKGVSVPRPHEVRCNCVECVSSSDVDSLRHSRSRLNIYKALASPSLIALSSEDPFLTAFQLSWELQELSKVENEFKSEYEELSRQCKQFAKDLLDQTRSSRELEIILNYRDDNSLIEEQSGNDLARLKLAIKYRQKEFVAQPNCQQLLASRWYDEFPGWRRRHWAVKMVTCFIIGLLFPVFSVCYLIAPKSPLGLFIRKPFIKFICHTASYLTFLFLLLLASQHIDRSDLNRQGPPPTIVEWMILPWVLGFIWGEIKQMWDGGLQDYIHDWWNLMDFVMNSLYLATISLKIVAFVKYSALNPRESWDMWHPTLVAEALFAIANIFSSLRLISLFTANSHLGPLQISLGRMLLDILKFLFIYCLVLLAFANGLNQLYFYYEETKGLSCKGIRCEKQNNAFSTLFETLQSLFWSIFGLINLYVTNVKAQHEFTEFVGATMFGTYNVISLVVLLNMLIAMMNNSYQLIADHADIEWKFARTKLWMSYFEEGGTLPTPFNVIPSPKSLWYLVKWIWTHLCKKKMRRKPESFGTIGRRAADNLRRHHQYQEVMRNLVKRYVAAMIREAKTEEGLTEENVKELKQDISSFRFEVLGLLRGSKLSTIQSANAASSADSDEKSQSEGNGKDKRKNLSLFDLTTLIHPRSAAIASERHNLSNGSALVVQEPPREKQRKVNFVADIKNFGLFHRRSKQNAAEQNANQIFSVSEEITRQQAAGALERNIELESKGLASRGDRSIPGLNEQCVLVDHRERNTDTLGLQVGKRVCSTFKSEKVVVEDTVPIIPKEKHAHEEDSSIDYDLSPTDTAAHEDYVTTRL

[3] = molecular target: T2, Short transient receptor potential channel 4; assay: mouse TRPC4 channel activators, dose response, cell-based, HEK293 TRPC4/mu-opioid, Fluo-4 calcium (AID 434937); format: functional
Cytochrome P450 3A4 = Cytochrome P450 3A4 (Homo sapiens, UniProt P08684);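 also: CYP3A4 tested as one member of a cytochrome P450 panel screen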
Cytochrome P450 2C9 = Cytochrome P450 2C9 (Homo sapiens, UniProt P11712)
[4] = molecular target: Heat shock protein HSP 90-alpha (Homo sapiens, UniProt P07900); format: functional, organism-based
BJ [5] = assay: cytotoxicity toward BJ-TERT fibroblasts, dose response, cell-based, RAS-independent, luminescence (AID 1933); format: functional; conditions: Homo sapiens
BJ [6] = assay: cells; format: functional, cell-based; conditions: Homo sapiens
BJ [7] = assay: cytotoxicity toward BJ-TERT-LT-ST fibroblasts, dose response, cell-based, RAS-independent, luminescence (AID 1935); format: functional; conditions: Homo sapiens;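 also: BJ fibroblasts immortalized with TERT plus LT and ST oncogenes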
[8] = cytotoxicity toward DRD oncogenic fibroblasts, dose response, cell-based, non-viral oncogenic, luminescence (AID 1934); format: functional; conditions: Homo sapiens
[9] = cytotoxicity in HEK-293T cells, dose response, cytotoxicity control for TCR NF-kB inhibitor project, luminescence, T-cell screen hits (AID 489026); format: functional, cell-based;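 also: cells exposed to compound about 14 hours before the viability readout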
[10] = Fluorescence-based cell-based high throughput dose response assay for inhibitors of the interaction of nucleotide-binding oligomerization domain containing 2 (NOD2) and the receptor-interacting serine-threonine kinase 2 (RIPK2).; format: functional; conditions: Homo sapiens
[11] = molecular target: Luciferin 4-monooxygenase (Photinus pyralis, UniProt P08659); assay: firefly luciferase enzyme inhibitors, dose response, biochemical, luminescence (AID 1891)
[12] = Luminescence Cell-Based Dose Confirmation HTS to Identify Inhibitors of Platelet Dense Granule Release. [Related pubchem assays: 1663 (Primary HTS), 1678 (Summary of Project)]; format: functional
Cytochrome P450 2C19 = Cytochrome P450 2C19 (Homo sapiens, UniProt P33261); assay: Cytochrome panel assay with activity outcomes. Panel member name: p450-cyp2c19 Compounds with AC50 equal or less than 10 uM are considered active; format: functional; conditions: read-out: AC50
Sequence of Cytochrome P450 2C19 (P33261 whole entry): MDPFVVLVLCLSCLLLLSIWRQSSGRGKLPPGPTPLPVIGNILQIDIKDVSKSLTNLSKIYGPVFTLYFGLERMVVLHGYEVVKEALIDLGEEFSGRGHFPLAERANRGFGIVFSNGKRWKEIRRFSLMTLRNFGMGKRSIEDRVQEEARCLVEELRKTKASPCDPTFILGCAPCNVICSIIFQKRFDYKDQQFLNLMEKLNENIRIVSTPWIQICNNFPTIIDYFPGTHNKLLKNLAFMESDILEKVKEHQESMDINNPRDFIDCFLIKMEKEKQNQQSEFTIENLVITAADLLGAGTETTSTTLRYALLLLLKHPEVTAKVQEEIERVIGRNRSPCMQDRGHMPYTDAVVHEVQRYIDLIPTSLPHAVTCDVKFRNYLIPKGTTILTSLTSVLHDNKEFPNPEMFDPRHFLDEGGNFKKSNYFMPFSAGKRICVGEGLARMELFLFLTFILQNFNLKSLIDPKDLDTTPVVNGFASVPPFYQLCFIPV

Sequence of Cytochrome P450 2C9 (P11712 whole entry): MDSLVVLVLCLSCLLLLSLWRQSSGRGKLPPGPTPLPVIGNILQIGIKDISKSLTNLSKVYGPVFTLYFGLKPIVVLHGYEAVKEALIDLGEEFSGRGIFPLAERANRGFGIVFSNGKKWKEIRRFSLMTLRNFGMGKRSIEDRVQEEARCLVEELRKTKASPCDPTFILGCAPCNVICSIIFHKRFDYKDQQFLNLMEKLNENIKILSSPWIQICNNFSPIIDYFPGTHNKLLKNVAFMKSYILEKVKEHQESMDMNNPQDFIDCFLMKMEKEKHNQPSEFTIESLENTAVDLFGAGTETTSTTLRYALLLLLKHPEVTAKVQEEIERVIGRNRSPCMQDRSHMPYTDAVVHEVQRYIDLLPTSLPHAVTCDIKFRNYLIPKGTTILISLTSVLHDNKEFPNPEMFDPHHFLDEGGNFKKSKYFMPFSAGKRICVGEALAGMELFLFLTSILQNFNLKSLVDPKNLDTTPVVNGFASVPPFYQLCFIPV
Sequence of Cytochrome P450 3A4 (P08684 whole entry): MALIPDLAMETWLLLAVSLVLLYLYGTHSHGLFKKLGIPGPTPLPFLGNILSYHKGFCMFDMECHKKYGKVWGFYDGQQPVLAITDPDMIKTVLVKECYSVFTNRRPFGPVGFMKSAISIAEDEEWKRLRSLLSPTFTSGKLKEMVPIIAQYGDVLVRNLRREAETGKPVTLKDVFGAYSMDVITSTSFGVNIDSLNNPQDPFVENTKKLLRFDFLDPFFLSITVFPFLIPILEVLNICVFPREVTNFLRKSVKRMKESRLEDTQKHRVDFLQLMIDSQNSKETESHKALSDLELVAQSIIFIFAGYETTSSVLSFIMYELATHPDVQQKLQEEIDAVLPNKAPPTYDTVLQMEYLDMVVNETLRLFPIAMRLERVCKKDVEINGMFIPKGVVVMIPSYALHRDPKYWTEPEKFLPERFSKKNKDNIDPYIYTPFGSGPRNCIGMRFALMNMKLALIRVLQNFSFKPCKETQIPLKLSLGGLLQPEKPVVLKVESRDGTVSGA
Sequence of Luciferin 4-monooxygenase (P08659 whole entry): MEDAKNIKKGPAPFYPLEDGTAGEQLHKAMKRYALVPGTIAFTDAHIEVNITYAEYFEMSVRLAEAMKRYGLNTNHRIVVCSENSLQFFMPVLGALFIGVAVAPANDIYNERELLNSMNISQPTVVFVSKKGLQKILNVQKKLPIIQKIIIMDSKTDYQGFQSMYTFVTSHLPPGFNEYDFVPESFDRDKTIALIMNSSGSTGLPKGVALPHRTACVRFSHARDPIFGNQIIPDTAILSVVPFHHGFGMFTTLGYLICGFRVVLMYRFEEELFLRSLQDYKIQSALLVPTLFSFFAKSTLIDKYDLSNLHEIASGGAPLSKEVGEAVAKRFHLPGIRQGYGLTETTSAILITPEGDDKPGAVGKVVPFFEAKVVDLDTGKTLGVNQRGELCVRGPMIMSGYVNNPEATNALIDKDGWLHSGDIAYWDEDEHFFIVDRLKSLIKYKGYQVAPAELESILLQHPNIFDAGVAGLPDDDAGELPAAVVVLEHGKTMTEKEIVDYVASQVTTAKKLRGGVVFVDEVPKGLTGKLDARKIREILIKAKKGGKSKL

In the case of CC(Oc1cccc(Cl)c1)C(=O)Nc1cc(S(=O)(=O)N2CCOCC2)ccc1N1CCCCC1 (stereo unspecified), the IC50 [1] is reported as 74.9 µM (active) and the AC50 (INS1) is reported as 5.41 µM (active).

For Cc1ccc(COn2c(-c3ccc(Cl)cc3Cl)nc3ncccc32)cc1, the EC50 [2] was 0.473 µM (active) and the EC50 [3] was 0.749 µM (active).

For O=C(NCc1ccccc1)c1ccc2c(c1)C(=O)N(CC1CCCO1)C2=O (stereo unspecified), the AC50 (Cytochrome P450 3A4) was “inconclusive”.

In the case of CC(=O)O[C@]1(C(C)=O)CC[C@@H]2[C@@H]3C=C(Cl)C4=CC(=O)[C@H]5C[C@@H]5[C@]4(C)[C@H]3CC[C@]21C, the AC50 (Cytochrome P450 2C9) is reported as 15.8 µM (inconclusive) and 31.6 µM (inconclusive) and the AC50 (Cytochrome P450 3A4) is reported as “inconclusive”.

For CCN1CCCC1CNS(=O)(=O)c1c(C)cc(C)cc1C (stereo unspecified), the EC50 [3] was 3.35 µM (active).

With Cc1ccc(NC(=O)CCN2CCC(Cc3ccccc3)CC2)cc1 the EC50 [3] was 0.0667 µM (active).

For Cc1cc(C)c2c(N=NN3CCCCC3)[nH]nc2n1, the AC50 [4] was 4.01 µM (active).

For CC(=O)Nc1ccc(S(=O)(=O)N2c3ccccc3C(C)=CC2(C)C)cc1, the EC50 (BJ [5]) was 7.82 µM (inconclusive), the EC50 (BJ [6]) was 13 µM (inconclusive) and the EC50 (BJ [7]) was 9.33 µM (inconclusive). For the same compound, the EC50 [8] was 10.4 µM (inconclusive), the IC50 [9] was > 80 µM (inactive) and the IC50 [10] was 49.7 µM (inactive).

With COc1ccc(S(N)(=O)=O)cc1C(=O)NCCCN1CCN(c2cccc(Cl)c2)CC1.CS(=O)(=O)O the EC50 [11] was > 112 µM (not active), the EC50 [12] was > 56.1 µM (not active) and the AC50 (Cytochrome P450 2C19) was 14.1 µM (inconclusive). For the same compound, the AC50 (Cytochrome P450 2C9) was 100 nM (inconclusive) and the AC50 (Cytochrome P450 3A4) was “inconclusive”.
